From publication PMC3395220 (Journal of Medicinal Chemistry, 2012)
Where two headings read alike, the source gives them in different places.

Tests used:
60 cancer cell lines = assay: cells; type: cell-based, human; conditions: Homo sapiens
CCRF-CEM = type: cell-based, human; conditions: 10^Δ2-x, relative to compound 2
HL-60(TB) = type: cell-based, human; conditions: 10^Δ2-x, relative to compound 2
K-562 = type: cell-based, human; conditions: 10^Δ2-x, relative to compound 2
MOLT-4 = type: cell-based, human; conditions: 10^Δ2-x, relative to compound 2
RPMI-8226 = type: cell-based, human; conditions: 10^Δ2-x, relative to compound 2
SR = type: cell-based, human; conditions: 10^Δ2-x, relative to compound 2
A549/ATCCC [1] = type: cell-based, human; conditions: 10^Δ2-x, relative to compound 2
EKVX = type: cell-based, human; conditions: 10^Δ2-x, relative to compound 2
HOP-62 = type: cell-based, human; conditions: 10^Δ2-x, relative to compound 2
HOP-92 = type: cell-based, human; conditions: 10^Δ2-x, relative to compound 2
NCI-H226 = type: cell-based, human; conditions: 10^Δ2-x, relative to compound 2
NCI-H23 = type: cell-based, human; conditions: 10^Δ2-x, relative to compound 2
NCI-H460 = type: cell-based, human; conditions: 10^Δ2-x, relative to compound 2
NCI-H522 = type: cell-based, human; conditions: 10^Δ2-x, relative to compound 2
COLO 205 [2] = type: cell-based, human; conditions: 10^Δ2-x, relative to compound 2
HCC-2998 = type: cell-based, human; conditions: 10^Δ2-x, relative to compound 2
HCT-116 = type: cell-based, human; conditions: 10^Δ2-x, relative to compound 2
HCT-15 = type: cell-based, human; conditions: 10^Δ2-x, relative to compound 2
HT29 = type: cell-based, human; conditions: 10^Δ2-x, relative to compound 2
KM12 = type: cell-based, human; conditions: 10^Δ2-x, relative to compound 2
SW-620 = type: cell-based, human; conditions: 10^Δ2-x, relative to compound 2
SF-268 = type: cell-based, human; conditions: 10^Δ2-x, relative to compound 2
SF-295 [3] = type: cell-based, human; conditions: 10^Δ2-x, relative to compound 2
SF-539 = type: cell-based, human; conditions: 10^Δ2-x, relative to compound 2
SNB-19 = type: cell-based, human; conditions: 10^Δ2-x, relative to compound 2
SNB-75 = type: cell-based, human; conditions: 10^Δ2-x, relative to compound 2
U251 [4] = type: cell-based, human; conditions: 10^Δ2-x, relative to compound 2
LOX IMVI = type: cell-based, human; conditions: 10^Δ2-x, relative to compound 2
M14 = type: cell-based, human; conditions: 10^Δ2-x, relative to compound 2
MDA-MB-435 = type: cell-based, human; conditions: 10^Δ2-x, relative to compound 2
SK-MEL2 = type: cell-based, human; conditions: 10^Δ2-x, relative to compound 2
SK-MEL28 = type: cell-based, human; conditions: 10^Δ2-x, relative to compound 2
SK-MEL-5 [5] = type: cell-based, human; conditions: 10^Δ2-x, relative to compound 2
UACC-257 = type: cell-based, human; conditions: 10^Δ2-x, relative to compound 2
UACC-62 = type: cell-based, human; conditions: 10^Δ2-x, relative to compound 2
IGROV1 [6] = type: cell-based, human; conditions: 10^Δ2-x, relative to compound 2
OVCAR-3 = type: cell-based, human; conditions: 10^Δ2-x, relative to compound 2
OVCAR-4 = type: cell-based, human; conditions: 10^Δ2-x, relative to compound 2
OVCAR-5 = type: cell-based, human; conditions: 10^Δ2-x, relative to compound 2
OVCAR-8 [7] = type: cell-based, human; conditions: 10^Δ2-x, relative to compound 2
NCI/ADR-RES = assay: cells; type: cell-based, human; conditions: 10^Δ2-x, relative to compound 2
786-0 = type: cell-based, human; conditions: 10^Δ2-x, relative to compound 2
A498 = type: cell-based, human; conditions: 10^Δ2-x, relative to compound 2
ACHN = type: cell-based, human; conditions: 10^Δ2-x, relative to compound 2
CAKI-1 = type: cell-based, human; conditions: 10^Δ2-x, relative to compound 2
RXF 393 = type: cell-based, human; conditions: 10^Δ2-x, relative to compound 2
SN12C = type: cell-based, human; conditions: 10^Δ2-x, relative to compound 2
TK-10 = type: cell-based, human; conditions: 10^Δ2-x, relative to compound 2
UO-31 = type: cell-based, human; conditions: 10^Δ2-x, relative to compound 2
PC-3 = type: cell-based, human; conditions: 10^Δ2-x, relative to compound 2
DU-145 = type: cell-based, human; conditions: 10^Δ2-x, relative to compound 2
MCF7 = type: cell-based, human; conditions: 10^Δ2-x, relative to compound 2
MDA-MB-231/ATCC [8] = type: cell-based, human; conditions: 10^Δ2-x, relative to compound 2
HS578T = type: cell-based, human; conditions: 10^Δ2-x, relative to compound 2
BT-549 = type: cell-based, human; conditions: 10^Δ2-x, relative to compound 2
T-47D = type: cell-based, human; conditions: 10^Δ2-x, relative to compound 2
MDA-MB-468 = type: cell-based, human; conditions: 10^Δ2-x, relative to compound 2
[9] = tested on: COLO-205 (colon), A549 (non-small cell lung) and BXCP3 (pancreas); assay: cells; type: cell-based; conditions: 72 h, read-out: average GI50 (50% of growth inhibition)
[10] = tested on: panel of 12 tumor cell lines implanted in mice; assay: NCI hollow fiber assay; type: in vivo; conditions: for hollow fiber assay total score: 12 tumor cell lines, daily ip for four days
SK-MEL-2 melanoma cells = assay: Subcutaneous SK-MEL-2 melanoma xenograft; type: in vivo, athymic nu/nu mice; conditions: ip 8 mg/kg q4dx3, positive control
A549/ATCCC [11] = conditions: read-out: Average GI50; A549, NSCL; ref historical data at the NCI; cited from earlier work
COLO 205 [12] = conditions: read-out: Average GI50; COLO205, colon; ref historical data at the NCI; cited from earlier work
SK-MEL-5 [13] = conditions: read-out: Average GI50; SK-MEL-5, melanoma; ref historical data at the NCI; cited from earlier work
IGROV1 [14] = conditions: read-out: Average GI50; IGROV 1, ovarian; ref historical data at the NCI; cited from earlier work
OVCAR-8 [15] = conditions: read-out: Average GI50; OVCAR-8, ovarian; ref historical data at the NCI; cited from earlier work
MDA-MB-231/ATCC [16] = conditions: read-out: Average GI50; MDA-MB-231, breast; ref historical data at the NCI; cited from earlier work
SF-295 [17] = conditions: read-out: Average GI50; SF-295, CNS; ref historical data at the NCI; cited from earlier work
U251 [18] = conditions: read-out: Average GI50; U251, CNS; ref historical data at the NCI; cited from earlier work

`CO[C@H](C(=O)[C@@H](O)[C@@H](C)O)[C@@H]1Cc2cc3cc(O[C@H]4C[C@@H](O[C@H]5C[C@@H](O)[C@H](O)[C@@H](C)O5)[C@H](O)[C@@H](C)O4)c(C)c(O)c3c(O)c2C(=O)[C@H]1O[C@H]1C[C@@H](O[C@H]2C[C@@H](O[C@H]3C[C@H](O)[C@H](O)[C@@H](C)O3)[C@H](O)[C@@H](C)O2)[C@H](O)[C@@H](C)O1` [Compound 2, demycarosyl-3D-β-D-digitoxosyl-mithramycin, reference compound] gave a GI50 (60 cancer cell lines; read-out: Mean GI50) of 51 nM.

Work on `CO[C@H](C(=O)C(C)=O)[C@@H]1Cc2cc3cc(O[C@H]4C[C@@H](O[C@H]5C[C@@H](O)[C@H](O)[C@@H](C)O5)[C@H](O)[C@@H](C)O4)c(C)c(O)c3c(O)c2C(=O)[C@H]1O[C@H]1C[C@@H](O[C@H]2C[C@@H](O[C@H]3C[C@H](O)[C@H](O)[C@@H](C)O3)[C@H](O)[C@@H](C)O2)[C@H](O)[C@@H](C)O1` [Compound 11, demycarosyl-3D-β-D-digitoxosyl-mithramycin SDK] yielded an activity improvement factor (CCRF-CEM) of 1.16, an activity improvement factor (HL-60(TB)) of 3.09 and an activity improvement factor (K-562) of 1.26. It also gave an activity improvement factor (MOLT-4) of 1.76, an activity improvement factor (RPMI-8226) of 0.75 and an activity improvement factor (SR) of 1.22. The activity improvement factor (A549/ATCCC [1]) was 1.68, the activity improvement factor (EKVX) was 1.48 and the activity improvement factor (HOP-62) was 3.39. For the same compound, the activity improvement factor (HOP-92) was 1.50, the activity improvement factor (NCI-H226) was 1.32 and the activity improvement factor (NCI-H23) was 2.79. It also gave an activity improvement factor (NCI-H460) of 1.19, an activity improvement factor (NCI-H522) of 0.70 and an activity improvement factor (COLO 205 [2]) of 1.60. It also gave an activity improvement factor (HCC-2998) of 4.79, an activity improvement factor (HCT-116) of 1.30 and an activity improvement factor (HCT-15) of 5.82. It also gave an activity improvement factor (HT29) of 3.13, an activity improvement factor (KM12) of 2.32 and an activity improvement factor (SW-620) of 1.22. For the same compound, the activity improvement factor (SF-268) was 1.66, the activity improvement factor (SF-295 [3]) was 2.32 and the activity improvement factor (SF-539) was 1.58. For the same compound, the activity improvement factor (SNB-19) was 2.57, the activity improvement factor (SNB-75) was 2.75 and the activity improvement factor (U251 [4]) was 1.35. It also gave an activity improvement factor (LOX IMVI) of 1.51, an activity improvement factor (M14) of 2.75 and an activity improvement factor (MDA-MB-435) of 1.70. For the same compound, the activity improvement factor (SK-MEL2) was 2.24, the activity improvement factor (SK-MEL28) was 1.30 and the activity improvement factor (SK-MEL-5 [5]) was 1.24. For the same compound, the activity improvement factor (UACC-257) was 1.17, the activity improvement factor (UACC-62) was 0.91 and the activity improvement factor (IGROV1 [6]) was 3.24. It also gave an activity improvement factor (OVCAR-3) of 3.43, an activity improvement factor (OVCAR-4) of 2.88 and an activity improvement factor (OVCAR-5) of 2.57. The activity improvement factor (OVCAR-8 [7]) was 2.11, the activity improvement factor (NCI/ADR-RES) was 4.68 and the activity improvement factor (786-0) was 2.43. It also gave an activity improvement factor (A498) of 0.68, an activity improvement factor (ACHN) of 2.09 and an activity improvement factor (CAKI-1) of 1.82. For the same compound, the activity improvement factor (RXF 393) was 1.91, the activity improvement factor (SN12C) was 1.45 and the activity improvement factor (TK-10) was 1.50. For the same compound, the activity improvement factor (UO-31) was 1.30, the activity improvement factor (PC-3) was 4.37 and the activity improvement factor (DU-145) was 3.63. It also gave an activity improvement factor (MCF7) of 0.65, an activity improvement factor (MDA-MB-231/ATCC [8]) of 2.00 and an activity improvement factor (HS578T) of 1.76. For the same compound, the activity improvement factor (BT-549) was 1.26, the activity improvement factor (T-47D) was 1.32 and the activity improvement factor (MDA-MB-468) was 2.14. For the same compound, the GI50 (60 cancer cell lines; read-out: Mean GI50) was 28 nM, the GI50 (60 cancer cell lines; read-out: Mean log(GI50) (converted)) was 28.2 nM and the GI50 [9] was 300 to 1300 nM. For the same compound, the “hollow fiber assay total score” value [10] was 48/96.

With `COc1cccc2c1C(=O)c1c(O)c3c(c(O)c1C2=O)C[C@@](O)(C(=O)CO)C[C@@H]3O[C@H]1C[C@H](N)[C@H](O)[C@H](C)O1` [doxorubicin, reference compound] the “growth of SK-MEL-2 human melanoma xenografts” value (SK-MEL-2 melanoma cells) was “markedly delayed”.

In the case of mithramycin [Compound 1], the “hollow fiber assay total score” value [10] is reported as 58/96, the “hollow fiber assay intraperitoneal score” value ([10]; intraperitoneal implants) is reported as 34/48 and the “hollow fiber assay subcutaneous score” value ([10]; subcutaneous implants) is reported as 24/48. For the same compound, the GI50 (A549/ATCCC [11]) was 79 nM, the GI50 (COLO 205 [12]) was 63 nM and the GI50 (SK-MEL-5 [13]) was 63 nM. The GI50 (IGROV1 [14]) was 158 nM, the GI50 (OVCAR-8 [15]) was 79 nM and the GI50 (MDA-MB-231/ATCC [16]) was 166 nM. The GI50 (SF-295 [17]) was 79 nM and the GI50 (U251 [18]) was 63 nM.
